Results as given in US12171852B1, “Composition and methods for regulating melanogenesis” (Sytheon Ltd, priority 2023, dated 2024).
Blank lines part the entries; values can stand above or below the compound they belong to.

Key:
NADPH Oxidase 4 (NOX-4) = NADPH Oxidase 4 (NOX-4) (Homo sapiens (Human), UniProt Q9NPH5); experiment: NADPH oxidase (NOX-4) inhibitory activity, NOX4 ELISA kit; type: biochemical
Method: A study was conducted on the direct impact of Zn di-(di-n-butyryl lysinate) (ZDBL), Ca di-(di-n-butyryl lysinate), and Na butyrate on NADPH Oxidase 4 (NOX-4) enzyme. In this study, 0.01 gram of sample was dissolved in 1 ml propanediol to make solution. For the analysis, a 1 to 2 serial dilution of the stock solution of the sample using buffer was made to determine the IC50 values. The analysis was done following NOX4 ELISA kit (My BioSource, Catalog #MBS2505108) protocol.

Thioredoxin reductase 1 = Thioredoxin reductase 1 (Homo sapiens (Human), UniProt Q16881); experiment: Thioredoxin reductase 1 (TrxR1) inhibitory activity; type: biochemical; conditions: average of two readings; 1 hour incubation at room temperature
Sequence of Thioredoxin reductase 1 (Q16881 151-649): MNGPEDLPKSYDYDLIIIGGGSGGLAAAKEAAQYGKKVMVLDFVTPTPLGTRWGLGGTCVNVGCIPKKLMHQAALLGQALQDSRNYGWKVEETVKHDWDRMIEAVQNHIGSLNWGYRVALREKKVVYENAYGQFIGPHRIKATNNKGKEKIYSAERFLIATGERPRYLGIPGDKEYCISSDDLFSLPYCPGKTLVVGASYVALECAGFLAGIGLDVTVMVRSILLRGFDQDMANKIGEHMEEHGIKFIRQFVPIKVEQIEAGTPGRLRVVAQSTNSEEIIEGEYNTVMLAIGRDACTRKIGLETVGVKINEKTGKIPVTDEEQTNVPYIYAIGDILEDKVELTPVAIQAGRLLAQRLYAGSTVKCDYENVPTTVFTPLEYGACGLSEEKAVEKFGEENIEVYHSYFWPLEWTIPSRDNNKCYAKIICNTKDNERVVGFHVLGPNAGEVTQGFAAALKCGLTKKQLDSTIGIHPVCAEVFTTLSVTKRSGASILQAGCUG
Method: Thioredoxin is known to influence melanogenesis substrates [Y Lu et al., Modulating skin colour: role of thioredoxin and glutathione systems in regulating melanogenesis, Bioscience Reports, 2021; 41 BSR20210427]. […] Test materials were prepared by dissolving 0.01 gm of each test material in 1 ml ethanol to make stock solutions. […] The plate was read at 412 nm for 30 minutes to determine the inhibition.

[1] = test system: microphthalmia-associated transcription factor (MITF) gene expression; experiment: MITF gene expression, transcriptome analysis of treated EpiDermFT tissues; type: cell-based; conditions: EpiDermFT tissue, 3 μl of 100 μg/ml solution, 24 hours
Method: EpiDermFT tissues were obtained from MatTek and equilibrated overnight in the cell culture incubator. […] All stock solutions were prepared at 20 mg/ml in DMSO and further dilutions were made in sterile distilled water. The proposed dosage used was based on cytotoxicity data. Water was used as the negative control. The treated tissue samples were incubated for a period of 24 hours following which RNA was extracted and prepared for transcriptome analysis for assessing the impact, if any, on the gene expression of microphthalmia-associated transcription factor (MITF). Sequencing data were generated by Azenta Life Sciences (HiSeq 2×150 bp). Analyses were performed using raw FastQ files provided by Azenta.

mushroom tyrosinase = experiment: In vitro tyrosinase inhibition assay (L-DOPA conversion); type: biochemical; conditions: for Tyrosinase enzyme activity (% of Control): 80 min, L-DOPA 5 mM; for Inhibition of tyrosinase activity (in words): particularly at the higher concentrations
Method: Louis, MO, catalog #K3125) was employed as the positive control/reference substance. […] [Biosci Biotechnol Biochem, 67:1587-1589, 2003]. […] The final concentration used in the assay was 16 U/well (80 U/ml). Tyrosinase substrate L-DOPA (Acros Organics, Fair Lawn, NJ) was used at 5 mM. Reactions were conducted in a 96 well format and were initiated by adding the enzyme to the reaction mix and allowed to react for 80 min. […] The increase of the melanin output was calculated using the formula: ΔM=[A450 nm(t=80 min.)+Tyrosinase]−[A450 nm(t=80 min.)−Tyrosinase] where ΔM is increase of melanin, A is absorbance for a given experimental condition, t is a time point and 450 nm is the wavelength used for the quantification of melanin and “-Tyrosinase” is the background reading of identical experimental conditions without the enzyme.

B16-F1 melanocytes = experiment: Melanin synthesis in melanocytes, melanin colorimetric competitive ELISA; type: cell-based; conditions: for % Melanin Inhibition: 200 μg/ml, water control = 100; for Melanin-inhibitory activity (in words): colorimetric quantification, ZDBL at 200 μg/ml
MITF gene expression = MITF gene expression validated by real-time quantitative PCR in EpiDermFT tissues; type: cell-based; conditions: versus water control
Method: As validation of the findings above a second analysis of the tissue samples was performed this time using cDNA prepared using High-Capacity RNA-to-cDNA™ Kit (Thermo Fisher Scientific). Expression of the applicable genes was measured by real-time quantitative PCR with the BioRad iCycler iQ Detection System using PCR primers from Realtimeprimers (Elkins Park, PA) and AzuraView GreenFast qPCR Blue Mix LR (Azura Genomics, Raynham, MA). Efficiency ΔΔCt method was used for quantification of results, after the normalization of gene expression to GAPD (a housekeeping gene).

IC50 value, NADPH Oxidase (NOX-4) (NADPH Oxidase 4 (NOX-4)): 240 µg/mL | IC50 value, Thioredoxin Reductase 1 (Thioredoxin reductase 1): 4.53 µg/mL | Tyrosinase enzyme activity (% of Control) (mushroom tyrosinase; 10 μg/ml): 85 (p = 0.10) % of Control | Tyrosinase enzyme activity (% of Control) (mushroom tyrosinase; 50 μg/ml): 89 (p = 0.13) % of Control | Tyrosinase enzyme activity (% of Control) (mushroom tyrosinase; 200 μg/ml): 99 (p = 0.86) % of Control | Inhibition of tyrosinase activity (in words) (mushroom tyrosinase): ineffective
Compound: CCCC(=O)NCCCCC(NC(=O)CCC)C(=O)[O-].CCCC(=O)NCCCCC(NC(=O)CCC)C(=O)[O-].[Ca+2] (centres unmarked) [CDBL, calcium di-(di-n-butyryl lysinate)]
Fold change/mean FPKM = 2.2 (MITF gene expression) [1]: 0.41 | MITF gene expression effect (in words) ([1]; listed as Ca di-(di-n-butyryl lysinate) (CDBL)): No effect | MITF gene expression effect (in words) ([1]; listed as Ca di-n-butyryl lysinate): not significantly altered | % Melanin Inhibition (B16-F1 melanocytes; three days): 0% | Melanin-inhibitory activity (in words) (B16-F1 melanocytes): no significant effect | Comments (MITF gene expression by PCR) (MITF gene expression): No Effect

Compound: NCCCC[C@H](N)C(=O)[O-].NCCCC[C@H](N)C(=O)[O-].[Ca+2] [Ca lysinate (CLY), Ca lysinate]
Fold change/mean FPKM = 2.2 (MITF gene expression) [1]: −0.21 | MITF gene expression effect (in words) [1]: No effect | MITF gene expression effect (in words) ([1]; listed as Ca lysinate): not significantly altered | Comments (MITF gene expression by PCR) (MITF gene expression): No Effect

Compound: CCCCCCc1ccc(O)cc1O [Hexylresorcinol]
Melanin inhibition, positive control (B16-F1 melanocytes; 5 μg/ml, three days): *Hexylresorcinol (5 μg/ml) was used as a positive control: Melanin inhibition was found fo be 17% of control (p = 0.007) confirming the validation of the protocol.

Compound: O=c1cc(CO)occ1O [Kojic acid, kojic acid]
Tyrosinase enzyme activity (% of control), positive control (mushroom tyrosinase; 200 μM): *Kojic acid (200 μM) was used as a positive control: Tyrosinase enzyme activity was found to be 39% of control (p = 0.00) confirming the validation of the protocol.

Compound: NCCCC[C@H](N)C(=O)O [Lysine (LYS), Lysine]
Fold change/mean FPKM = 2.2 (MITF gene expression) [1]: 0.38 | MITF gene expression effect (in words) [1]: No effect | MITF gene expression effect (in words) ([1]; listed as lysine): not significantly altered

IC50 value, NADPH Oxidase (NOX-4) (NADPH Oxidase 4 (NOX-4)): 170 µg/mL
Compound: CCCC(=O)[O-].[Na+] [Na butyrate]

Compound: NCCCC[C@H](N)C(=O)[O-].NCCCC[C@H](N)C(=O)[O-].[Zn+2] [Zn lysinate (ZLY), Zn lysinate]
Fold change/mean FPKM = 2.2 (MITF gene expression) [1]: 0.17 | MITF gene expression effect (in words) [1]: No effect | MITF gene expression effect (in words) ([1]; listed as Zn lysinate): not significantly altered | Tyrosinase enzyme activity (% of Control) (mushroom tyrosinase; 10 μg/ml): 80 (p = 0.02) % of Control | Tyrosinase enzyme activity (% of Control) (mushroom tyrosinase; 50 μg/ml): 90 (p = 0.95) % of Control | Tyrosinase enzyme activity (% of Control) (mushroom tyrosinase; 200 μg/ml): 90 (p = 0.23) % of Control | Inhibition of tyrosinase activity (in words) (mushroom tyrosinase): ineffective | % Melanin Inhibition (B16-F1 melanocytes; three days): 0% | Melanin-inhibitory activity (in words) (B16-F1 melanocytes): no significant effect | Comments (MITF gene expression by PCR) (MITF gene expression): No Effect
